Patent US5962417A, “Methods of modulating melanin synthesis” (Trustees of Boston University, priority 1998, dated 1999)

Assays:
[1] = molecular target: TRP 2
Method: (§1) To investigate whether PKC regulates other melanogenic proteins such as tyrosinase related proteins (TPR 1 and TPR 2), melanocytes were treated with 10^-7 M TPA for 2 weeks, a condition known to deplete PKC, and TRP 1 and TRP 2 protein levels were determined using immunoblot analysis with specific antibodies. […] TRP 1 and TRP 2 were immunoprecipitated and incorporation of ^3 H-glycosamine into these proteins was examined.

[2] = tested on: TRP 1
Method: as §1

[3] = 10^-7 M TPA for 2 weeks (PKC depletion), melanocytes
[4] = TPA for 2 weeks, melanocytes labeled with 3H-glycosamine

CCCCCCCCCCCCCC(=O)O[C@@H]1[C@@H](C)[C@@]2(O)[C@@H](C=C(CO)C[C@]3(O)C(=O)C(C)=C[C@@H]23)[C@@H]2C(C)(C)[C@]12OC(C)=O [TPA, tetraphorbol acetate]
effect on 65 kd non-glycosylated TRP 2 precursor [1, 3]: unaffected | reduction of level of glycosylated mature form of TRP 2 (80 kd) [1, 3]: 50-70% | reduction of 3H-glycosamine incorporation into TRP 2 [1, 4]: > 50% | effect on TRP 1 protein level [2, 3]: no effect | effect on glycosylated or non-glycosylated form of TRP 1 (3H-glycosamine labeling) [2, 4]: did not affect
